# Tests used:
# Test in all cases: relative viability (nuclei count vs DMSO), 5 days (fraction); higher = more cells survive
# LCLC-97TM1 = tested on: LCLC-97TM1
# Outline: (§1)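 Values are medians from duplicate plates. Each reflects relative viability, defined as the nuclei count of treated wells over that of vehicle wells. Lung cancer cell lines in 1536-well plates were pin-tool dosed one day after seeding with one drug alone or with a fixed anchor-drug dose plus five library-drug doses (not always all listed) in √10 steps, then fixed, stained and imaged at 4× after 5 days.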
# NCI-H1666 = tested on: NCI-H1666
# Outline: as §1
# HCC-15 = tested on: HCC-15
# Outline: as §1
# NCI-H1651 = tested on: NCI-H1651
# Outline: as §1
# BEN = tested on: BEN
# Outline: as §1
# LK-2 = tested on: LK-2
# Outline: as §1
# NCI-H322M = tested on: NCI-H322M
# Outline: as §1
# NCI-H2087 = tested on: NCI-H2087
# Outline: as §1
# LU99A = tested on: LU99A
# Outline: as §1
# SK-MES-1 = tested on: SK-MES-1
# Outline: as §1
# LC-2-ad = tested on: LC-2-ad
# Outline: as §1
# NCI-H1944 = tested on: NCI-H1944
# Outline: as §1
# NCI-H661 = tested on: NCI-H661
# Outline: as §1
# ChaGo-K-1 = tested on: ChaGo-K-1
# Outline: as §1
# LXF-289 = tested on: LXF-289
# Outline: as §1
# NCI-H650 = tested on: NCI-H650
# Outline: as §1
# NCI-H358 = tested on: NCI-H358
# Outline: as §1
# NCI-H2342 = tested on: NCI-H2342
# Outline: as §1
# NCI-H838 = tested on: NCI-H838
# Outline: as §1
# PC-3 [JPC-3] = tested on: PC-3 [JPC-3]
# Outline: as §1
# H3255 = tested on: H3255
# Outline: as §1
# NCI-H596 = tested on: NCI-H596
# Outline: as §1
# UMC-11 = tested on: UMC-11
# Outline: as §1
compound,measurement,setting,value
Clc1ccc(Nc2nnc(Cc3ccncc3)c3ccccc23)cc1 [Vatalanib] + CCNC(=O)c1noc(-c2cc(C(C)C)c(O)cc2O)c1-c1ccc(CN2CCOCC2)cc1 [Luminespib] (partner 0.01 µM),relative viability,LCLC-97TM1; first compound 0.04 µM,0.715
same,relative viability,LCLC-97TM1; first compound 0.1265 µM,0.808
same,relative viability,LCLC-97TM1; first compound 0.4 µM,0.741
same,relative viability,LCLC-97TM1; first compound 1.265 µM,0.725
same,relative viability,LCLC-97TM1; first compound 4 µM,0.951
same,relative viability,NCI-H1666; first compound 0.04 µM,0.986
same,relative viability,NCI-H1666; first compound 0.1265 µM,0.991
same,relative viability,NCI-H1666; first compound 0.4 µM,0.996
same,relative viability,NCI-H1666; first compound 1.265 µM,1.01
same,relative viability,NCI-H1666; first compound 4 µM,1.04
same,relative viability,HCC-15; first compound 0.04 µM,0.42
same,relative viability,HCC-15; first compound 0.1265 µM,0.457
same,relative viability,HCC-15; first compound 0.4 µM,0.181
same,relative viability,HCC-15; first compound 1.265 µM,0.234
same,relative viability,HCC-15; first compound 4 µM,0.235
same,relative viability,NCI-H1651; first compound 0.04 µM,0.852
same,relative viability,NCI-H1651; first compound 0.1265 µM,0.891
same,relative viability,NCI-H1651; first compound 0.4 µM,0.878
same,relative viability,NCI-H1651; first compound 1.265 µM,0.869
same,relative viability,NCI-H1651; first compound 4 µM,0.915
same,relative viability,BEN; first compound 0.04 µM,0.218
same,relative viability,BEN; first compound 0.1265 µM,0.265
same,relative viability,BEN; first compound 0.4 µM,0.514
same,relative viability,BEN; first compound 1.265 µM,0.399
same,relative viability,BEN; first compound 4 µM,0.404
same,relative viability,LK-2; first compound 0.04 µM,0.185
same,relative viability,LK-2; first compound 0.1265 µM,0.217
same,relative viability,LK-2; first compound 0.4 µM,0.188
same,relative viability,LK-2; first compound 1.265 µM,0.202
same,relative viability,LK-2; first compound 4 µM,0.182
same,relative viability,NCI-H322M; first compound 0.04 µM,0.849
same,relative viability,NCI-H322M; first compound 0.1265 µM,0.798
same,relative viability,NCI-H322M; first compound 0.4 µM,0.877
same,relative viability,NCI-H322M; first compound 1.265 µM,0.793
same,relative viability,NCI-H322M; first compound 4 µM,0.909
same,relative viability,NCI-H2087; first compound 0.04 µM,0.152
same,relative viability,NCI-H2087; first compound 0.1265 µM,0.157
same,relative viability,NCI-H2087; first compound 0.4 µM,0.184
same,relative viability,NCI-H2087; first compound 1.265 µM,0.173
same,relative viability,NCI-H2087; first compound 4 µM,0.159
same,relative viability,LU99A; first compound 0.04 µM,0.255
same,relative viability,LU99A; first compound 0.1265 µM,0.238
same,relative viability,LU99A; first compound 0.4 µM,0.264
same,relative viability,LU99A; first compound 1.265 µM,0.286
same,relative viability,LU99A; first compound 4 µM,0.246
same,relative viability,SK-MES-1; first compound 0.04 µM,0.745
same,relative viability,SK-MES-1; first compound 0.1265 µM,0.845
same,relative viability,SK-MES-1; first compound 0.4 µM,1.05
same,relative viability,SK-MES-1; first compound 1.265 µM,0.679
same,relative viability,SK-MES-1; first compound 4 µM,0.6
same,relative viability,LC-2-ad; first compound 0.04 µM,1.1
same,relative viability,LC-2-ad; first compound 0.1265 µM,1.04
same,relative viability,LC-2-ad; first compound 1.265 µM,0.997
same,relative viability,LC-2-ad; first compound 4 µM,0.948
same,relative viability,NCI-H1944; first compound 0.04 µM,0.796
same,relative viability,NCI-H1944; first compound 0.1265 µM,0.687
same,relative viability,NCI-H1944; first compound 0.4 µM,0.845
same,relative viability,NCI-H1944; first compound 1.265 µM,0.679
same,relative viability,NCI-H1944; first compound 4 µM,0.752
same,relative viability,NCI-H661; first compound 0.04 µM,0.887
same,relative viability,NCI-H661; first compound 0.1265 µM,0.91
same,relative viability,NCI-H661; first compound 0.4 µM,0.998
same,relative viability,NCI-H661; first compound 1.265 µM,0.89
same,relative viability,NCI-H661; first compound 4 µM,0.931
same,relative viability,ChaGo-K-1; first compound 0.04 µM,0.636
same,relative viability,ChaGo-K-1; first compound 0.1265 µM,0.608
same,relative viability,ChaGo-K-1; first compound 0.4 µM,0.671
same,relative viability,ChaGo-K-1; first compound 1.265 µM,0.471
same,relative viability,ChaGo-K-1; first compound 4 µM,0.45
same,relative viability,LXF-289; first compound 0.04 µM,0.703
same,relative viability,LXF-289; first compound 0.1265 µM,0.634
same,relative viability,LXF-289; first compound 0.4 µM,0.734
same,relative viability,LXF-289; first compound 1.265 µM,0.623
same,relative viability,LXF-289; first compound 4 µM,0.633
same,relative viability,NCI-H650; first compound 0.04 µM,0.821
same,relative viability,NCI-H650; first compound 0.1265 µM,0.628
same,relative viability,NCI-H650; first compound 1.265 µM,0.736
same,relative viability,NCI-H650; first compound 4 µM,0.781
same,relative viability,NCI-H358; first compound 0.04 µM,0.498
same,relative viability,NCI-H358; first compound 0.1265 µM,0.381
same,relative viability,NCI-H358; first compound 0.4 µM,0.353
same,relative viability,NCI-H358; first compound 1.265 µM,0.345
same,relative viability,NCI-H358; first compound 4 µM,0.308
same,relative viability,NCI-H2342; first compound 0.04 µM,0.684
same,relative viability,NCI-H2342; first compound 0.1265 µM,0.684
same,relative viability,NCI-H2342; first compound 0.4 µM,0.822
same,relative viability,NCI-H2342; first compound 1.265 µM,0.869
same,relative viability,NCI-H2342; first compound 4 µM,0.658
same,relative viability,NCI-H838; first compound 0.04 µM,0.326
same,relative viability,NCI-H838; first compound 0.1265 µM,0.267
same,relative viability,NCI-H838; first compound 0.4 µM,0.244
same,relative viability,NCI-H838; first compound 1.265 µM,0.305
same,relative viability,NCI-H838; first compound 4 µM,0.378
same,relative viability,PC-3 [JPC-3]; first compound 0.04 µM,0.697
same,relative viability,PC-3 [JPC-3]; first compound 0.1265 µM,0.688
same,relative viability,PC-3 [JPC-3]; first compound 0.4 µM,0.7
same,relative viability,PC-3 [JPC-3]; first compound 1.265 µM,0.706
same,relative viability,PC-3 [JPC-3]; first compound 4 µM,0.723
same,relative viability,H3255; first compound 0.04 µM,0.881
same,relative viability,H3255; first compound 0.1265 µM,0.91
same,relative viability,H3255; first compound 0.4 µM,0.82
same,relative viability,H3255; first compound 1.265 µM,0.743
same,relative viability,H3255; first compound 4 µM,0.838
same,relative viability,NCI-H596; first compound 0.04 µM,0.955
same,relative viability,NCI-H596; first compound 0.1265 µM,0.941
same,relative viability,NCI-H596; first compound 0.4 µM,0.953
same,relative viability,NCI-H596; first compound 1.265 µM,1.01
same,relative viability,NCI-H596; first compound 4 µM,1.19
same,relative viability,UMC-11; first compound 0.04 µM,1.08
same,relative viability,UMC-11; first compound 0.1265 µM,1.11
same,relative viability,UMC-11; first compound 0.4 µM,0.996
same,relative viability,UMC-11; first compound 1.265 µM,1.02
same,relative viability,UMC-11; first compound 4 µM,1.01
